Publication PMC13329992, “Catalytic Promiscuity Underpins Metabolic Resistance to Auxinic Herbicides in Echinochloa phyllopogon” (Journal of Agricultural and Food Chemistry, 2026)

Target: T1, CYP81A24 (Echinochloa phyllopogon, UniProt R4WC97)
T1 construct: expressed in E. coli C41(DE3) from pET28 with co-expressed Arabidopsis ATR2 reductase (pCDF, with HemA) and pGro7 chaperonin
T1 sequence (R4WC97 1-515): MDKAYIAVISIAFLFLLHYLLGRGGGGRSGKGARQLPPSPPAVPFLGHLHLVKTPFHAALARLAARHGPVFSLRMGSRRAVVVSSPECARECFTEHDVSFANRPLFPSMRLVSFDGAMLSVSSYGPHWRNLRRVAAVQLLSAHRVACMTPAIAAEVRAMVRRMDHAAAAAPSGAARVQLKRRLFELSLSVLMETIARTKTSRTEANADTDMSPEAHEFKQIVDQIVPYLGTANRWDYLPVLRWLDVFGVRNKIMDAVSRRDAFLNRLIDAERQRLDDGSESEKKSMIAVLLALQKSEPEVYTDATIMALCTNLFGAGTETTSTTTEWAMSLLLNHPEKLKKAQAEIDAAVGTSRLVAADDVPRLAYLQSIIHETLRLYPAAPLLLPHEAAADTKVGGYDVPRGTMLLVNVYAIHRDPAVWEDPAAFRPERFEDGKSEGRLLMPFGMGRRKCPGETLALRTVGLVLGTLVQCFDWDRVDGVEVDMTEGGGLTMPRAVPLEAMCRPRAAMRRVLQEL
Experiment: E. coli whole-cell metabolism, LC-MS/MS MRM m/z […] to […]
Assay type: cell-based
Details: 0.2 mM quinclorac, 24 h, 30 °C; co-expressed ATR2 reductase; putative hydroxylated product, no authentic standard

Compound: O=C(O)c1c(Cl)ccc2cc(Cl)cnc12 [quinclorac]
- E. coli whole-cell metabolism, LC-MS/MS MRM m/z 258 to 177: identified in the culture solution of E. coli with CYP81A12, CYP81A21, and CYP81A24
